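Values below derive from 48-hour exposures of cells grown in 96-well plates, with endpoints linearly interpolated between the two concentrations bracketing the appropriate inhibition level. GI50 marks 50% less growth. TGI marks complete inhibition of growth.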 Some results are limits rather than exact numbers.

This note sets out measurements from PubChem BioAssay (NCI).

Test systems include MALME-3M melanoma; CCRF-CEM leukemia; OVCAR-5 ovarian; RXF 393 renal; IGROV1 ovarian; SK-MEL-28 melanoma; SK-MEL-2 melanoma; SR leukemia; ACHN renal; SNB-75 CNS.
What all share (test): NCI anticancer screen, dose series, 48 h

In the case of `CCOC(=O)[C@@H](C)C[C@H](Cc1ccccc1)NC(=O)c1csc([C@@H](C[C@H](C(C)C)N(C)C(=O)[C@@H](NC(=O)[C@H]2C[C@H](O[Si](C)(C)C(C)(C)C)CCN2C)C(C)C)OC(C)=O)n1`, the GI50 with MALME-3M melanoma is 0.215 µM; with CCRF-CEM leukemia, 0.298 µM; in the assay with OVCAR-5 ovarian, 0.296 µM; in the assay with RXF 393 renal, 0.159 µM; in the assay on IGROV1 ovarian, 0.272 µM; in the assay with SK-MEL-28 melanoma it was 0.491 µM. Moreover, the GI50 with SK-MEL-2 melanoma is 0.263 µM; in the assay on SR leukemia it was 0.0387 µM; with ACHN renal, 0.427 µM; in the assay with SNB-75 CNS, 0.205 µM. In addition, the TGI was over 8.33 µM in the assay with MALME-3M melanoma; over 6.87 µM with CCRF-CEM leukemia; over 7.43 µM in the assay on OVCAR-5 ovarian; 0.481 µM in the assay on RXF 393 renal; over 8.33 µM in the assay on IGROV1 ovarian; over 8.33 µM in the assay on SK-MEL-28 melanoma. In addition, the TGI in the assay on SK-MEL-2 melanoma is over 7.21 µM; in the assay on SR leukemia, 1.82 µM; in the assay with ACHN renal, over 8.33 µM; in the assay on SNB-75 CNS, 0.76 µM.
Turning to `Cc1cc2c(CC(=O)O)[nH]nc2c(C(=O)O)c1C`, the TGI with MALME-3M melanoma, with CCRF-CEM leukemia, in the assay on OVCAR-5 ovarian, in the assay with RXF 393 renal, with SK-MEL-28 melanoma and in the assay on SK-MEL-2 melanoma was over 100 µM each time. The TGI with SR leukemia, with ACHN renal and with SNB-75 CNS was over 100 µM each time.
As for `C=CCNC(=S)N1CC(C)C(=O)Nc2ccccc21` (stereo not given), the TGI with MALME-3M melanoma, in the assay with CCRF-CEM leukemia, with OVCAR-5 ovarian, in the assay on RXF 393 renal, with IGROV1 ovarian and in the assay with SK-MEL-28 melanoma was over 100 µM each time. For the same molecule, the TGI in the assay with SK-MEL-2 melanoma, in the assay on SR leukemia, in the assay with ACHN renal and in the assay on SNB-75 CNS was over 100 µM throughout.
With `CCOC(=O)CCC(=O)C1c2cccc(O)c2C(=O)c2c(O)cccc21`, the TGI was 3.42 µM in the assay on MALME-3M melanoma; 3.68 µM with CCRF-CEM leukemia; 3.38 µM in the assay with OVCAR-5 ovarian; 2.08 µM in the assay on RXF 393 renal; 4.72 µM in the assay on IGROV1 ovarian; 2.68 µM in the assay with SK-MEL-28 melanoma. The TGI was 7.29 µM in the assay with SR leukemia, 2.9 µM with ACHN renal and 2.33 µM with SNB-75 CNS.
As to `CCCC(=O)c1c(NOC2OC(COC(C)=O)C(OC(C)=O)C(OC(C)=O)C2OC(C)=O)nc(OC)n(C)c1=O` (stereo not given), the TGI in the assay on CCRF-CEM leukemia, in the assay with OVCAR-5 ovarian, with RXF 393 renal, in the assay on IGROV1 ovarian, with SK-MEL-28 melanoma and in the assay on SK-MEL-2 melanoma was over 100 µM throughout. Further, the TGI in the assay on SR leukemia, with ACHN renal and in the assay on SNB-75 CNS was over 100 µM throughout.
Take `Cc1cc2nc3c(C(OC4OC(CO)C(O)C(O)C4O)C(O)CO)nn(-c4ccccc4)c3nc2cc1C` (stereo not given): the TGI in the assay on MALME-3M melanoma, with CCRF-CEM leukemia, in the assay on OVCAR-5 ovarian, with RXF 393 renal, in the assay on SK-MEL-28 melanoma and with SR leukemia was over 100 µM throughout. In addition, the TGI in the assay on ACHN renal and in the assay with SNB-75 CNS was over 100 µM each time.
For `COC1=CC23C=CC1[C@@H](c1ccccc1)C2=C(C)C(=O)N3C(=O)NC1CCCCC1` (stereo not given in full), the TGI in the assay with CCRF-CEM leukemia was 72.5 µM; in the assay on OVCAR-5 ovarian, 68.2 µM; in the assay with RXF 393 renal, 14.8 µM; with IGROV1 ovarian, over 100 µM; in the assay on SK-MEL-28 melanoma, 42.2 µM; with SK-MEL-2 melanoma, 39.5 µM. Also, the TGI in the assay with SR leukemia is 56.8 µM; with ACHN renal, over 100 µM; with SNB-75 CNS, over 100 µM.
Regarding `CN(C)CCNc1nc2ccccc2c2c1c1c(n2Cc2ccccc2)-c2ccccc2C1=O`, the GI50 in the assay with CCRF-CEM leukemia is 7.86 µM; in the assay on OVCAR-5 ovarian it was 12.3 µM; in the assay with RXF 393 renal it was 11.5 µM; with IGROV1 ovarian, 12.1 µM; in the assay on SK-MEL-28 melanoma, 16.8 µM; with SK-MEL-2 melanoma it was 10.9 µM. Further, the results for the GI50 in the assay with SR leukemia, with ACHN renal and in the assay on SNB-75 CNS were 2.85 µM, 6.43 µM and 14.4 µM, respectively. Also, the TGI is 24.1 µM in the assay with CCRF-CEM leukemia; 27.8 µM in the assay on OVCAR-5 ovarian; 37.6 µM with RXF 393 renal; 49.5 µM in the assay on IGROV1 ovarian; 32.3 µM in the assay with SK-MEL-28 melanoma; 28.9 µM in the assay on SK-MEL-2 melanoma. Further, the TGI in the assay on SR leukemia worked out at 20.9 µM; in the assay on ACHN renal, 20.7 µM; in the assay with SNB-75 CNS, 28.9 µM.
Take `Oc1ccc(N=Nc2ccc(Cl)cc2)cc1`: the TGI with CCRF-CEM leukemia was over 100 µM; in the assay on OVCAR-5 ovarian it was 32.2 µM; with RXF 393 renal, 30.3 µM; in the assay on IGROV1 ovarian, 29.3 µM; in the assay with SK-MEL-28 melanoma it was 54.1 µM; in the assay with SK-MEL-2 melanoma it was 28.4 µM. The TGI came out at 54.8 µM in the assay on SR leukemia, 27.7 µM with ACHN renal and 46.1 µM with SNB-75 CNS.
For the molecule `CC1=C2C(O)C(C(C)CO)C(O)CC2(C)C(O)CC1` (stereo not given), the TGI in the assay with MALME-3M melanoma, in the assay on CCRF-CEM leukemia, in the assay with OVCAR-5 ovarian, in the assay on RXF 393 renal, in the assay on IGROV1 ovarian and with SK-MEL-28 melanoma was over 100 µM each time. In addition, the TGI in the assay with SR leukemia, in the assay with ACHN renal and in the assay with SNB-75 CNS was over 100 µM each time.
For `CCOC(=O)C(C)(C)Oc1ccc2c(=O)cc(-c3ccc(Cl)cc3)oc2c1`, the TGI in the assay on MALME-3M melanoma, with CCRF-CEM leukemia, in the assay on RXF 393 renal, with IGROV1 ovarian, in the assay on SK-MEL-28 melanoma and in the assay with SK-MEL-2 melanoma was over 100 µM each time. Besides, the TGI in the assay on SR leukemia, in the assay with ACHN renal and in the assay with SNB-75 CNS was over 100 µM throughout.
For the molecule `CCCCCCNC(=O)C1=C(C)NC(C)=C(C(=O)NCCCCCC)C1`, the TGI in the assay on CCRF-CEM leukemia, in the assay with OVCAR-5 ovarian, in the assay on RXF 393 renal, with IGROV1 ovarian, with SK-MEL-28 melanoma and with SK-MEL-2 melanoma was over 100 µM in each case. Moreover, the TGI with SR leukemia, in the assay on ACHN renal and in the assay with SNB-75 CNS was over 100 µM each time.
Turning to `COc1cc2c(cc1OCc1ccccc1)N=C[C@@H]1C/C(=C/C(=O)NCCCN3C(=O)c4cccc5cccc(c45)C3=O)CN1C2=O`, the GI50 in the assay on MALME-3M melanoma is 0.272 µM; with CCRF-CEM leukemia it was 0.0548 µM; with OVCAR-5 ovarian it was 0.617 µM; in the assay on RXF 393 renal it was 0.231 µM; with IGROV1 ovarian, 0.468 µM; in the assay on SK-MEL-28 melanoma it was 1.96 µM. In addition, the GI50 is over 100 µM in the assay on SR leukemia, 3.82 µM in the assay with ACHN renal and 0.877 µM in the assay with SNB-75 CNS. Besides, the TGI in the assay on MALME-3M melanoma was 1.06 µM; in the assay on CCRF-CEM leukemia, over 100 µM; in the assay on OVCAR-5 ovarian it was 14.4 µM; with RXF 393 renal it was 0.651 µM; in the assay on SK-MEL-28 melanoma, 24.8 µM; with SR leukemia, over 100 µM. Further, the results for the TGI in the assay on ACHN renal and with SNB-75 CNS were over 61.4 µM and 3.66 µM, respectively.
